Experimental data from patent publication US20200121695A1, “COMPOSITIONS AND METHODS FOR TREATING ITCH, SKIN INFLAMMATION, AND PRURITUS” (priority 2017, published 2020).

Assay: Case report: with menstrual-cycle itching, elevated ALP and PBC/AIH overlap syndrome
Assay type: in vivo, human
Conditions: person, Ursodiol 300 mg three times a day plus mycophenolate mofetil 500 mg four times a day for 1 year, together with replacement of Nuva Ring by copper IUD and dietary changes
Description: The itching was predominantly concentrated on hands, feet, back, and stomach area, and the symptoms disappeared as soon as menstruation began. They previously used Nuva Ring for about three years, followed by approximately 5.5 year hiatus. The medical history and gynecological clinical examination were not unusual, with the exception of elevated liver enzymes having been discovered about two years prior to visit. […] The initial treatment thus comprised short-term moderate amounts of Prednisone, with the regiment starting about the time of re-start of the Nuva Ring use. Approximately two months after the start of Prednisone regimen the patient was diagnosed with an overlap syndrome of Primary Biliary Cholangitis/Cirrhosis (PBC) and Autoimmune Hepatitis (AIH). […] New treatment regimen was implemented. Nuva Ring was replaced with a non-hormonal intrauterine device (copper) to enable treatment with immunosuppressive drugs. Additionally steroid drugs, Ursodiol (300 mg three times a day) and mycophenolate mofetil (Cellcept, 500 mg, four times a day), regimen was started in order to reduce AST levels, and continued for 1 year. Finally dietary changes eliminating foods that are rich in zinc and vitamin B12 were effected.

Row | Compound | itching symptoms at the time of menstruation
1 | C[C@H](CCC(=O)O)[C@H]1CC[C@H]2[C@@H]3[C@@H](O)C[C@@H]4C[C@H](O)CC[C@]4(C)[C@H]3CC[C@]12C [Ursodiol] | significant reduction of the itching symptoms
2 | COc1c(C)c2c(c(O)c1C/C=C(\C)CCC(=O)OCCN1CCOCC1)C(=O)OC2 [mycophenolate mofetil] | significant reduction of the itching symptoms
